Data reported in US7118895B2, “Process for producing aglycon by using diglycosidase and flavor-improved food containing the aglycon and converting agent to be used in the process” (Amano Enzyme Inc., priority 2000, dated 2006).

System: Crude diglycosidase
Assay: Examination of temperature in the conversion into isoflavone aglycons by diglycosidase using soybean materials
Assay type: biochemical, Penicillium multicolor IAM7153
Set-up: Decomposition efficiency of glycitin family in roasted soy flour / Decomposition efficiency of daidzin family in roasted soy flour / Decomposition efficiency of genistin family in soymilk / Decomposition efficiency of daidzin family in soymilk / Decomposition efficiency of glycitin family in defatted soybean / Decomposition efficiency of daidzin family in defatted soybean: concentration or dose not given beside the values
Method in brief: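 Soybean materials (50 mg) suspended in 20 mM acetate buffer pH 4.0 reacted with crude diglycosidase diluted to 1.88 AU/mL at 80, 65, 55, 45, 37 or 30° C. Reactions stopped with ethanol at 0, 1, 3 and 6 h; isoflavone glycosides and aglycons in supernatant detected by HPLC.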

[1] = 30° C., heat treatment of enzyme no, reaction time 0 h
[2] = 30° C., heat treatment of enzyme no, reaction time 1 h
[3] = 30° C., heat treatment of enzyme no, reaction time 3 h
[4] = 30° C., heat treatment of enzyme no, reaction time 6 h
[5] = 30° C., heat treatment of enzyme yes, reaction time 6 h
[6] = 45° C., heat treatment of enzyme no, reaction time 0 h
[7] = 45° C., heat treatment of enzyme no, reaction time 1 h
[8] = 45° C., heat treatment of enzyme no, reaction time 3 h
[9] = 45° C., heat treatment of enzyme no, reaction time 6 h
[10] = 45° C., heat treatment of enzyme yes, reaction time 6 h
[11] = 45 °C, heat treatment of enzyme: no, 0 h
[12] = 45 °C, heat treatment of enzyme: no, 1 h
[13] = 45 °C, heat treatment of enzyme: no, 3 h
[14] = 45 °C, heat treatment of enzyme: no, 6 h
[15] = 45 °C, heat treatment of enzyme: yes, 6 h
[16] = 55° C., heat treatment of enzyme no, reaction time 0 h
[17] = 55° C., heat treatment of enzyme no, reaction time 1 h
[18] = 55° C., heat treatment of enzyme no, reaction time 3 h
[19] = 55° C., heat treatment of enzyme no, reaction time 6 h
[20] = 55° C., heat treatment of enzyme yes, reaction time 6 h
[21] = 55 °C, heat treatment of enzyme: no, 0 h
[22] = 55 °C, heat treatment of enzyme: no, 1 h
[23] = 55 °C, heat treatment of enzyme: no, 3 h
[24] = 55 °C, heat treatment of enzyme: no, 6 h
[25] = 55 °C, heat treatment of enzyme: yes, 6 h
[26] = 65° C., heat treatment of enzyme no, reaction time 0 h
[27] = 65° C., heat treatment of enzyme no, reaction time 1 h
[28] = 65° C., heat treatment of enzyme no, reaction time 3 h
[29] = 65° C., heat treatment of enzyme no, reaction time 6 h
[30] = 65° C., heat treatment of enzyme yes, reaction time 6 h
[31] = 65 °C, heat treatment of enzyme: no, 0 h
[32] = 65 °C, heat treatment of enzyme: no, 1 h
[33] = 65 °C, heat treatment of enzyme: no, 3 h
[34] = 65 °C, heat treatment of enzyme: no, 6 h
[35] = 65 °C, heat treatment of enzyme: yes, 6 h
[36] = 80° C., heat treatment of enzyme no, reaction time 0 h
[37] = 80° C., heat treatment of enzyme no, reaction time 1 h
[38] = 80° C., heat treatment of enzyme no, reaction time 3 h
[39] = 80° C., heat treatment of enzyme no, reaction time 6 h
[40] = 80° C., heat treatment of enzyme yes, reaction time 6 h
[41] = 80 °C, heat treatment of enzyme: no, 0 h
[42] = 80 °C, heat treatment of enzyme: no, 1 h
[43] = 80 °C, heat treatment of enzyme: no, 3 h
[44] = 80 °C, heat treatment of enzyme: no, 6 h
[45] = 80 °C, heat treatment of enzyme: yes, 6 h

SMILES: O=c1c(-c2ccc(O)cc2)coc2cc(O[C@@H]3O[C@H](CO)[C@@H](O)[C@H](O)[C@H]3O)ccc12 [daidzin]
- Decomposition efficiency of daidzin family in concentrated soybean protein [1]: 52.3%
- Decomposition efficiency of daidzin family in defatted soybean [1]: 42.2%
- Decomposition efficiency of daidzin family in concentrated soybean protein [2]: 29.5%
- Decomposition efficiency of daidzin family in defatted soybean [2]: not detected
- Decomposition efficiency of daidzin family in concentrated soybean protein [3]: 13.4%
- Decomposition efficiency of daidzin family in defatted soybean [3]: not detected
- Decomposition efficiency of daidzin family in concentrated soybean protein [4]: 4.0%
- Decomposition efficiency of daidzin family in defatted soybean [4]: not detected
- Decomposition efficiency of daidzin family in concentrated soybean protein [5]: 54.5%
- Decomposition efficiency of daidzin family in defatted soybean [5]: not detected
- Decomposition efficiency of daidzin family in soymilk (30 °C, heat treatment of enzyme: no, 0 h): 34.1%
- Decomposition efficiency of daidzin family in soymilk (30 °C, heat treatment of enzyme: no, 1 h): not detected
- Decomposition efficiency of daidzin family in soymilk (30 °C, heat treatment of enzyme: no, 3 h): not detected
- Decomposition efficiency of daidzin family in soymilk (30 °C, heat treatment of enzyme: no, 6 h): not detected
- Decomposition efficiency of daidzin family in soymilk (30 °C, heat treatment of enzyme: yes, 6 h): 34.8%
- Decomposition efficiency of daidzin family in roasted soy flour (35 °C, heat treatment of enzyme: no, 0 h): 48.6%
- Decomposition efficiency of daidzin family in roasted soy flour (35 °C, heat treatment of enzyme: no, 1 h): 11.7%
- Decomposition efficiency of daidzin family in roasted soy flour (35 °C, heat treatment of enzyme: no, 3 h): not detected
- Decomposition efficiency of daidzin family in roasted soy flour (35 °C, heat treatment of enzyme: no, 6 h): not detected
- Decomposition efficiency of daidzin family in roasted soy flour (35 °C, heat treatment of enzyme: yes, 6 h): 50.3%
- Decomposition efficiency of daidzin family in concentrated soybean protein [6]: 52.4%
- Decomposition efficiency of daidzin family in defatted soybean [6]: 40.5%
- Decomposition efficiency of daidzin family in concentrated soybean protein [7]: 10.6%
- Decomposition efficiency of daidzin family in defatted soybean [7]: not detected
- Decomposition efficiency of daidzin family in concentrated soybean protein [8]: 9.6%
- Decomposition efficiency of daidzin family in defatted soybean [8]: not detected
- Decomposition efficiency of daidzin family in concentrated soybean protein [9]: 1.7%
- Decomposition efficiency of daidzin family in defatted soybean [9]: not detected
- Decomposition efficiency of daidzin family in concentrated soybean protein [10]: 94.3%
- Decomposition efficiency of daidzin family in defatted soybean [10]: not detected
- Decomposition efficiency of daidzin family in roasted soy flour [11]: 48.6%
- Decomposition efficiency of daidzin family in soymilk [11]: 33.9%
- Decomposition efficiency of daidzin family in roasted soy flour [12]: 3.6%
- Decomposition efficiency of daidzin family in soymilk [12]: 6.8%
- Decomposition efficiency of daidzin family in roasted soy flour [13]: 2.7%
- Decomposition efficiency of daidzin family in soymilk [13]: 6.9%
- Decomposition efficiency of daidzin family in roasted soy flour [14]: 5.4%
- Decomposition efficiency of daidzin family in soymilk [14]: 6.9%
- Decomposition efficiency of daidzin family in roasted soy flour [15]: 49.4%
- Decomposition efficiency of daidzin family in soymilk [15]: 36.0%
- Decomposition efficiency of daidzin family in concentrated soybean protein [16]: 52.5%
- Decomposition efficiency of daidzin family in defatted soybean [16]: 42.2%
- Decomposition efficiency of daidzin family in concentrated soybean protein [17]: 1.0%
- Decomposition efficiency of daidzin family in defatted soybean [17]: not detected
- Decomposition efficiency of daidzin family in concentrated soybean protein [18]: not detected
- Decomposition efficiency of daidzin family in defatted soybean [18]: not detected
- Decomposition efficiency of daidzin family in concentrated soybean protein [19]: not detected
- Decomposition efficiency of daidzin family in defatted soybean [19]: not detected
- Decomposition efficiency of daidzin family in concentrated soybean protein [20]: 54.6%
- Decomposition efficiency of daidzin family in defatted soybean [20]: not detected
- Decomposition efficiency of daidzin family in roasted soy flour [21]: 48.8%
- Decomposition efficiency of daidzin family in soymilk [21]: 34.2%
- Decomposition efficiency of daidzin family in roasted soy flour [22]: not detected
- Decomposition efficiency of daidzin family in soymilk [22]: not detected
- Decomposition efficiency of daidzin family in roasted soy flour [23]: not detected
- Decomposition efficiency of daidzin family in soymilk [23]: not detected
- Decomposition efficiency of daidzin family in roasted soy flour [24]: not detected
- Decomposition efficiency of daidzin family in soymilk [24]: not detected
- Decomposition efficiency of daidzin family in roasted soy flour [25]: 51.1%
- Decomposition efficiency of daidzin family in soymilk [25]: 40.7%
- Decomposition efficiency of daidzin family in concentrated soybean protein [26]: 52.3%
- Decomposition efficiency of daidzin family in defatted soybean [26]: 40.5%
- Decomposition efficiency of daidzin family in concentrated soybean protein [27]: 1.8%
- Decomposition efficiency of daidzin family in defatted soybean [27]: not detected
- Decomposition efficiency of daidzin family in concentrated soybean protein [28]: 1.7%
- Decomposition efficiency of daidzin family in defatted soybean [28]: not detected
- Decomposition efficiency of daidzin family in concentrated soybean protein [29]: 1.7%
- Decomposition efficiency of daidzin family in defatted soybean [29]: not detected
- Decomposition efficiency of daidzin family in concentrated soybean protein [30]: 53.2%
- Decomposition efficiency of daidzin family in defatted soybean [30]: 32.8%
- Decomposition efficiency of daidzin family in roasted soy flour [31]: 48.6%
- Decomposition efficiency of daidzin family in soymilk [31]: 34.1%
- Decomposition efficiency of daidzin family in roasted soy flour [32]: not detected
- Decomposition efficiency of daidzin family in soymilk [32]: not detected
- Decomposition efficiency of daidzin family in roasted soy flour [33]: not detected
- Decomposition efficiency of daidzin family in soymilk [33]: not detected
- Decomposition efficiency of daidzin family in roasted soy flour [34]: not detected
- Decomposition efficiency of daidzin family in soymilk [34]: not detected
- Decomposition efficiency of daidzin family in roasted soy flour [35]: 49.7%
- Decomposition efficiency of daidzin family in soymilk [35]: 48.7%
- Decomposition efficiency of daidzin family in concentrated soybean protein [36]: 52.4%
- Decomposition efficiency of daidzin family in defatted soybean [36]: 40.5%
- Decomposition efficiency of daidzin family in concentrated soybean protein [37]: 22.6%
- Decomposition efficiency of daidzin family in defatted soybean [37]: 7.8%
- Decomposition efficiency of daidzin family in concentrated soybean protein [38]: 23.3%
- Decomposition efficiency of daidzin family in defatted soybean [38]: 19.2%
- Decomposition efficiency of daidzin family in concentrated soybean protein [39]: 25.5%
- Decomposition efficiency of daidzin family in defatted soybean [39]: 30.4%
- Decomposition efficiency of daidzin family in concentrated soybean protein [40]: 54.5%
- Decomposition efficiency of daidzin family in defatted soybean [40]: 60.9%
- Decomposition efficiency of daidzin family in roasted soy flour [41]: 48.6%
- Decomposition efficiency of daidzin family in soymilk [41]: 33.9%
- Decomposition efficiency of daidzin family in roasted soy flour [42]: 3.2%
- Decomposition efficiency of daidzin family in soymilk [42]: 8.9%
- Decomposition efficiency of daidzin family in roasted soy flour [43]: 4.4%
- Decomposition efficiency of daidzin family in soymilk [43]: 23.9%
- Decomposition efficiency of daidzin family in roasted soy flour [44]: 12.5%
- Decomposition efficiency of daidzin family in soymilk [44]: 42.9%
- Decomposition efficiency of daidzin family in roasted soy flour [45]: 51.3%
- Decomposition efficiency of daidzin family in soymilk [45]: 69.5%
